Results on 4 molecules are retold here after patent US10293027B2, “Methods for treating metabolic disorders using FGF” (Salk Institute for Biological Studies, priority 2010, dated 2019).

For assay [1], the system named is ob/ob male mice. Put plainly: Daily FGF-1 or rosiglitazone treatment of ob/ob mice: fed blood glucose and body composition (Example 5). The assay is classed as in vivo, mouse. To be noted: fed ob/ob male mice, one hour after treatment; FGF-1 0.5 mg/kg/day s.c., TZD 5 mg/kg/day p.o.; about 400 mg/dl before treatment. On the procedure:
FIGS. 7A-7H. FGF-1 injection studies in rodents. (A) Fed blood glucose in ob/ob male mice treated with FGF-1 (0.5 mg/kg, s.c.), rosiglitazone (TZD, 5 mg/kg, p.o.), or vehicle. FGF-1 was administered once daily, and blood glucose levels were measured at day 0 (basal levels before FGF-1 injection), day 3, and day 6, 1 hour after injection. The values (±SE) shown are the average of the measurements of 5 animals in a group; (B) Sustained glucose lowering effects of FGF-1: Fed blood glucose levels in ob/ob mice at indicated time points after the last FGF-1 injection at day 6. (C-H): 72 hrs after the sixth dose, another dose was given and effects of FGF-1 and TZD on (C) body weight, (D) total body fat, (E) lean weight, (F) weight gain, (G) liver weight, and (H) heart weight were determined.
In Example 5, ob/ob male mice (8 wk old) were randomized into three groups and treated with daily subcutaneous (s.c.) injections of recombinant mouse FGF-1 (0.5 mg/kg in PBS), oral rosiglitazone (TZD, 5 mg/kg in 0.5% carboxymethyl cellulose), or vehicle. Blood glucose levels were measure in fed animals one hour after treatment. Total body composition analysis was performed using an EchoMRI-100™ (Echo Medical Systems, LLC).
Eight-week-old male ob/ob mice were treated with recombinant mouse FGF-1 (0.5 mg/kg/day, s.c. in 250 μl), rosiglitazone (TZD, 5 mg/kg/day, p.o. in 300 μl), or vehicle control (s.c. vehicle control 0.9% NaCl, 250 μl/mouse; p.o. vehicle control 0.5% CMC, 300 μl/mouse). Blood glucose was measured one hour after treatment at day 3 and day 6 using a standard protocol. (FIG. 7A).
Before treatment, all groups were severely hyperglycemic, as indicated by blood glucose levels of about 400 mg/dl. […] At 6 days, blood glucose levels were even further reduced to around 130-140 mg/dl for both groups. After the sixth dose, blood glucose levels were monitored for another 72 hrs. During this period, both FGF-1- and TZD-treated cohorts maintained normoglycemic levels (<140 mg/dl) for at least 48 hrs (FIG. 7B). At 72 hrs after the sixth dose, a final dose was given, and 12 hrs later, a total body composition analysis was performed by MRI followed by necropsy.

Assay [2] deals with ob/ob mice. The assay can be described thus: Single s.c. injection of human FGF1 or other FGFs, blood glucose in ob/ob mice (Examples 13, 14). To be noted: 0.5 mg/kg s.c. In kind it is in vivo, mouse. On the procedure:
FIG. 26. Human recombinant FGF-1 is effective in mice.
FIG. 27. Comparison of FGF1, FGF2, FGF9, and FGF10 effects. Single subcutaneous injection of FGFs (0.5 mg/kg) in ob/ob mice.
As human recombinant FGF-1 is already being used in the clinic, the present methods of using it to treat metabolic disorders offer a straightforward regulatory path to treatment.
As explained above, the FGF family of factors bind to members of the FGFR family of receptors with different specificities. FGF-1 binds preferentially to FGFR1 and FGFR4, and can be internalized into a cell expressing these receptors. To determine if other FGF proteins have similar metabolic effects as FGF-1, we tested blood glucose in ob/ob mice treated with FGF-2, FGF-9, and FGF-10 (0.5 mg/kg s.c.). This combination of FGF proteins binds to the spectrum of FGFRs.

Consider `CN(CCOc1ccc(CC2SC(=O)NC2=O)cc1)c1ccccn1` (centres unmarked) [rosiglitazone, reference compound], for which the “blood glucose levels at day three” value in assay [1] is listed as “about 200 mg/dl”.
On to “FGF2: other FGF protein tested for comparison with FGF-1 [reference compound]”, for which the “blood glucose in ob/ob mice after a single s.c. injection” value (“blood glucose in ob/ob mice” below) in assay [2] is listed as “Only FGF1 has glucose normalizing effects”.
As to “human FGF1: human recombinant FGF-1; human protein is 155 amino acids, SwissProt P05230.1”, the “blood glucose in ob/ob mice” value in assay [2] was “normalizes blood glucose”; in assay [2] (listed as hrFGF-1) it was “can effectively reduce glucose levels”.

B1: FGF10: other FGF protein tested for comparison with FGF-1 (protein, UniProt O15520 38-208, looked up)
Fibroblast growth factor 10: QALGQDMVSPEATNSSSSSFSSPSSAGRHVRSYNHLQGDVRWRKLFSFTKYFLKIEKNGKVSGTKKENCPYSILEITSVEIGVVAVKAINSNYYLAMNKKGKLYGSKEFNNDCKLKERIEENGYNTYASFNWQHNGRQMYVALNGKGAPRRGQKTRRKNTSAHFLPMVVHS
Regarding B1, the “blood glucose in ob/ob mice” value in assay [2] is “Only FGF1 has glucose normalizing effects”.
